Results reported in patent US10973821B2, “Pharmaceutical formulation” (priority 2016, dated 2021).

Tests used:
S. aurantiacum = details: cited from earlier work
A. terreus = details: cited from earlier work
S. prolifican 15849 = details: cited from earlier work
S. apiospermum 7935 = details: cited from earlier work
A. fumigatus [1] = details: A. fumigatus infected mice; orally by gavage; cited from earlier work
S. prolificans 6322 = details: cited from earlier work
A. fumigatus [2] = details: cited from earlier work
S. prolifican 8353 = details: cited from earlier work
S. prolificans 206 = details: cited from earlier work
[3] = in vivo PK studies in rats (single dose IV and p.o.); details: rat, 10 mg/kg
Description: Various formulations were investigated in in vivo PK studies in rats to determine the optimal oral formulation for dosing to animals and humans.
The compound of Formula I was administered to rats by IV at a dosage of 10 mg/kg. The vehicle comprised 15% hydroxypropyl beta cyclodextrin (Kelptose HPB parenteral grade), 5% DMSO and water for injection. The formulation was filtered using a ≤0.22 μm polyethersulfone (PES) membrane filter prior to use. The dose volume administered was 5 mL/kg. 0.2 mL blood samples from the sublingal vein under isoflurane anaesthesia were obtained 5 minutes after IV administration and stored in EDTA. Plasma was separated by centrifugation (1500×g, 10 mins, ca. 4° C.) and was frozen at −70° C. prior to analysis. Analysis to calculate plasma concentration of the compound of Formula I was conducted by LC-MS/MS. […] The AUCIV value was subsequently used to calculate the bioavailability of example oral formulations as described above.
A crystalline sample of the compound of Formula I was formulated in PEG300. The formulation was dosed p.o. (gavage) to rats at 10 mg/kg (dose volume=5 mL/kg). 0.2 mL blood samples from the sublingal vein under isoflurane anaesthesia were obtained 15 minutes after oral administration and stored in EDTA. Samples were then taken 0.5, 1, 2, 4, 8, 12 and 24 hours post-dose.

S. dehoogii = details: cited from earlier work
S. prolificans 18389 = details: cited from earlier work
S. prolifican 4883 = details: cited from earlier work
S. prolifican 15848 = details: cited from earlier work
S. apiospermum 13486 = details: cited from earlier work
S. prolifican 451 = details: cited from earlier work
S. apiospermum 451 = details: cited from earlier work
S. prolifican 1121 = details: cited from earlier work
[4] = in vivo PK studies in cynomolgus monkeys (single dose IV and p.o.); details: both sexes, cynomolgus monkey, 10 mg/kg
Description: Various formulations were investigated in in vivo PK studies in cynomolgus monkeys to determine the optimal oral formulation for dosing to animals and humans.
The compound of Formula I was administered to male and female cynomolgus monkeys by IV at a dosage of 10 mg/kg. The IV formulation was as described in Example 3. […] The AUCIV value was subsequently used to calculate the bioavailability of example oral formulations as described above.
Studies were conducted using Formulation 2 as described above. The compound of Formula I was administered p.o. to male and female cynomolgus monkeys at a dose level of 10 mg/kg. (dose volume 5 mL/kg). 2 mL blood samples were obtained 5 minutes via femoral puncture (vein/artery) into commercially available K2EDTA tubes using 23G needles coupled to a suitable syringe. Samples were taken 0.25, 0.5, 1, 2, 4, 8, 12 and 24 hours after administration of the formulation. Blood samples were kept on ice until centrifugation at 1600×g (10 mins, ca. 5° C.) to separate plasma. Analysis to calculate plasma concentration of the compound of Formula I was conducted by LC-MS/MS.
Studies were conducted using Formulation 5 as described in Example 3. […]

S. prolifican 13486 = details: cited from earlier work
S. boydii = details: cited from earlier work
A. flavus = details: cited from earlier work
S. prolifican 7935 = details: cited from earlier work
A. terreus 49 = details: cited from earlier work
invasive aspergillosis = details: mouse; orally by gavage; not the formulations of the present invention; cited from earlier work
A. fumigatus 210 = details: cited from earlier work
A. niger = details: cited from earlier work
S. prolifican 201 = details: cited from earlier work
S. apiospermum 8353 = details: cited from earlier work
S. apiospermum 4883 = details: cited from earlier work
[5] = test system: Lomentospora prolificans FMR 3569; details: mice infected with Lomentospora prolificans FMR 3569; relative to voriconazole; orally by gavage; cited from earlier work
S. apiospermum 1124 = details: cited from earlier work
S. apiospermum 15848 = details: cited from earlier work

For Cc1cc(-c2ccccc2)c(C(=O)C(=O)Nc2ccc(N3CCN(c4ncc(F)cn4)CC3)cc2)n1C [compound of Formula I, 2-(1,5-dimethyl-3-phenyl-1H-pyrrol-2-yl)-N-(4-(4-(5-fluoropyrimidin-2-yl)piperazin-1-yl)phenyl)-2-oxoacetamide], the antifungal activity (S. aurantiacum) is listed as “good antifungal activity”, the “MIC band (RPMI medium)” value (A. terreus) is listed as “A (MIC ≤ 0.005)” and the “MIC band (RPMI medium)” value (S. prolifican 15849) is listed as “E (0.04 < MIC ≤ 0.06)”. For the same molecule, the “MIC band (RPMI medium)” value (S. apiospermum 7935) was “C (0.01 < MIC ≤ 0.02)”, the galactomannan indices (A. fumigatus [1]) was “reduce galactomannan indices” and the “MIC band (RPMI medium)” value (S. prolificans 6322) was “D (0.02 < MIC ≤ 0.04)”. The “MIC band (RPMI medium)” value (A. fumigatus [2]) was “C (0.01 < MIC ≤ 0.02)”, the “MIC band (RPMI medium)” value (S. prolifican 8353) was “B (0.005 < MIC ≤ 0.01)” and the “MIC band (RPMI medium)” value (S. prolificans 206) was “D (0.02 < MIC ≤ 0.04)”. The AUC [3] was 13500 ng·h/mL, the antifungal activity (S. dehoogii) was “good antifungal activity” and the “MIC band (RPMI medium)” value (S. prolificans 18389) was “C (0.01 < MIC ≤ 0.02)”. For the same molecule, the “MIC band (RPMI medium)” value (S. prolifican 4883) was “C (0.01 < MIC ≤ 0.02)”, the “MIC band (RPMI medium)” value (S. prolifican 15848) was “D (0.02 < MIC ≤ 0.04)” and the “MIC band (RPMI medium)” value (S. apiospermum 13486) was “D (0.02 < MIC ≤ 0.04)”. The “MIC band (RPMI medium)” value (S. prolifican 451) was “B (0.005 < MIC ≤ 0.01)”, the “MIC band (RPMI medium)” value (S. apiospermum 451) was “B (0.005 < MIC ≤ 0.01)” and the “MIC band (RPMI medium)” value (S. prolifican 1121) was “A (MIC ≤ 0.005)”. The AUC [4] was 18000 ng·h/mL, the “MIC band (RPMI medium)” value (S. prolifican 13486) was “D (0.02 < MIC ≤ 0.04)” and the antifungal activity (S. boydii) was “good antifungal activity”. For the same molecule, the “MIC band (RPMI medium)” value (A. flavus) was “B (0.005 < MIC ≤ 0.01)”, the “MIC band (RPMI medium)” value (S. prolifican 7935) was “C (0.01 < MIC ≤ 0.02)” and the “MIC band (RPMI medium)” value (A. terreus 49) was “A (MIC ≤ 0.005)”. For the same molecule, the “efficacy in murine models of invasive aspergillosis” value (invasive aspergillosis) was “excellent efficacy”, the “MIC band (RPMI medium)” value (A. fumigatus 210) was “C (0.01 < MIC ≤ 0.02)” and the “MIC band (RPMI medium)” value (A. niger) was “C (0.01 < MIC ≤ 0.02)”. The “MIC band (RPMI medium)” value (S. prolifican 201) was “D (0.02 < MIC ≤ 0.04)”, the “MIC band (RPMI medium)” value (S. apiospermum 8353) was “B (0.005 < MIC ≤ 0.01)” and the “MIC band (RPMI medium)” value (S. apiospermum 4883) was “C (0.01 < MIC ≤ 0.02)”. The survival [5] was “increase survival”, the “MIC band (RPMI medium)” value (S. apiospermum 1124) was “A (MIC ≤ 0.005)” and the “MIC band (RPMI medium)” value (S. apiospermum 15848) was “D (0.02 < MIC ≤ 0.04)”.
